Results taken from PubChem BioAssay AID588784 (Southern Research Specialized Biocontainment Screening …, 2011).
Where “and” joins values, the source holds several entries; their conditions need not be identical. Equal values may be shown once. Calls of active or inactive are those of the source. How the calls were made is not given here.

System: HSV-infected cells, viral DNA qPCR Ct reduction
Assay: HSV genome copy increase, qPCR Ct shift, cell-based, HSV replication enhancer project, confirmation (AID 588784)
Conditions: at 10 µM; active compounds read high

In the case of `COc1cc(C(=O)OCCCN2CCCN(CCCOC(=O)c3cc(OC)c(OC)c(OC)c3)CC2)cc(OC)c1OC`, the Ct reduction is reported as -0.309 (inactive) and -0.64 (inactive).
